Common to all, as to assay type: cell-based
Test [1] has as its system H460 (human lung cancer cell). In words: In vitro anti-tumor cellular activity (MTT), H460. The following applies: for H460 IC50: 72 hours; for IC50: Homo sapiens, NCI-H460, 72 hours. As to the method: (§1) After pouring the cell dissociation buffer to the centrifugetube, nutrient solution was added to stop digestion. The centrifugetube were centrifuged for 10 min under 800 r/min, the liquid supernatant was removed, 5 mL culture solution was added, after mixing by pipetting the cell, took 10 μL cell suspension to the cell counting plat, and adjusted the cell concentration to 10^4/well. Among the 96 wells, A1 is empty, 100 μL of cell suspension were added to the other wells. The 96 well plates were incubated in the incubator for 24 h. […] The 96-well plates were placed in an incubator and cultivated for 72 hours. (3) The culture media containing the compounds in the 96-well plates was discarded, and the cells were washed with phosphate buffered solution (PBS) twice. Each well was added with 100 μL MTT (tetrazole) (0.5 mg/mL), and then placed in an incubator to incubate for 4 hours, after which MTT solution was discarded and 100 μL dimethyl sulfoxide was added thereto.

Test [2] concerns HT-29 (colon cancer cell). In words: In vitro anti-tumor cellular activity (MTT), HT-29. Particulars: 72 hours; for IC50: Homo sapiens. The protocol: as §1
Test [3] has as its system MKN-45 (human gastric carcinoma cell). In words: In vitro anti-tumor cellular activity (MTT), MKN-45. Particulars: 72 hours; for IC50: Homo sapiens. The protocol: as §1
For test [4], the system named is SMMC-7721 (hepatoma cell). In words: In vitro anti-tumor cellular activity (MTT), SMMC-7721. Particulars: 72 hours; for IC50: Homo sapiens. The protocol: as §1
Test [5] concerns MDA-MB-231 (human beast cancer cell). In words: In vitro anti-tumor cellular activity (MTT), MDA-MB-231. The following applies: 72 hours; for IC50: Homo sapiens. The protocol:
as §1

The test system of test [6] is U87MG (Human malignant glioblastoma cell). In words: In vitro anti-tumor cellular activity (MTT), U87MG. Particulars: 72 hours; for IC50: Homo sapiens, U-87 MG. As to the method: as §1

In brackets after ≈: the same amount, converted by molar mass.

The text below walks through data of patent US9783499B2, “Quinoline derivatives and their applications” (Shenyang Pharmaceutical University, priority 2012, dated 2017).

By IC50 is commonly meant the concentration at which inhibition is half-maximal. A low value points to greater potency in that assay.

As to “(E)-N^1-(3-fluoro-4-(6-methoxy-7-(3-(piperidin-1-yl)propoxy)quinoline-4-yloxy)phenyl)-N^4-(2-nitrobenzaldehyde)thiosemicarbazone [Example 34]”, in test [1], the “H460 IC50” value was determined as 0.089 µg/mL. In test [2], the “HT-29 IC50” value came out at 0.076 µg/mL. For the same compound, the “MKN-45 IC50” value in test [3] amounted to 0.12 µg/mL. For the same compound, the “SMMC-7721 IC50” value in test [4] amounted to 0.24 µg/mL. In addition, the “MDA-MB-231 IC50” value in test [5] is 0.077 µg/mL. The “U87MG IC50” value in test [6] was 0.19 µg/mL.

For the compound `COc1cc2c(Oc3ccc(/C=N/NC(=S)Nc4cccc(Br)c4)cc3F)ccnc2cc1OCCCN1CCOCC1` [Example 65, (E)-N^1-(3-bromophenyl)-N^4-(3-fluoro-4-(6-methoxy-7-(3-(morpholin-4-yl)propoxy)quinoline-4-yloxy)benzaldehyde)thiosemicarbazone], in test [1], the “H460 IC50” value stood at 2.4 µg/mL. Besides, the “HT-29 IC50” value in test [2] came to 1.9 µg/mL. The “MKN-45 IC50” value in test [3] was determined as 4.8 µg/mL. In addition, in test [4], the “SMMC-7721 IC50” value came to 2.8 µg/mL. Also, in test [5], the “MDA-MB-231 IC50” value worked out at 2.1 µg/mL. For the same compound, the “U87MG IC50” value in test [6] was determined as 3.4 µg/mL.

In the case of `COc1cc2c(Oc3ccc(NC(=O)NN=Cc4ccc(Cl)cc4Cl)cc3F)ccnc2cc1OCCCN1CCOCC1` [Example 20, (E)-N^1-(3-fluoro-4-(6-methoxy-7-(3-(morpholin-4-yl)propoxy)quinoline-4-yloxy)phenyl)-N^4-(2,4-dichlorobenzaldehyde)semicarbazone], in test [1], the “H460 IC50” value was determined as 1.1 µg/mL. Besides, in test [2], the “HT-29 IC50” value was 0.84 µg/mL. Besides, the “MKN-45 IC50” value in test [3] came to 1.5 µg/mL. Besides, the “SMMC-7721 IC50” value in test [4] was found to be 6.7 µg/mL. Also, the “MDA-MB-231 IC50” value in test [5] stood at 1.7 µg/mL. The “U87MG IC50” value in test [6] was 4.2 µg/mL.

For `COc1cc2c(Oc3ccc(NC(=O)NN=Cc4ccc(F)cc4Cl)cc3F)ccnc2cc1OCCCN1CCOCC1` [Example 14, (E)-N^1-(3-fluoro-4-(6-methoxy-7-(3-(morpholin-4-yl)propoxy)quinoline-4-yloxy)phenyl)-N^4-(2-chloro-4-fluorobenzaldehyde)semicarbazone], the “H460 IC50” value in test [1] was 1.2 µg/mL. For the same compound, the “HT-29 IC50” value in test [2] came out at 0.81 µg/mL. Further, the “MKN-45 IC50” value in test [3] was 0.65 µg/mL. Also, the “SMMC-7721 IC50” value in test [4] was 1.5 µg/mL. Besides, the “MDA-MB-231 IC50” value in test [5] was 0.90 µg/mL. For the same compound, the “U87MG IC50” value in test [6] is 1.4 µg/mL.

Take `COc1cc2c(Oc3ccc(NC(=S)N/N=C/c4ccccc4[N+](=O)[O-])cc3F)ccnc2cc1OCCCN1CCCC1` [Example 32]: in test [1], the “H460 IC50” value was 0.19 µg/mL. The “HT-29 IC50” value in test [2] worked out at 0.24 µg/mL. The “MKN-45 IC50” value in test [3] turned out to be 0.33 µg/mL. Besides, in test [4], the “SMMC-7721 IC50” value is 0.77 µg/mL. For the same compound, in test [5], the “MDA-MB-231 IC50” value was 0.13 µg/mL. In addition, the “U87MG IC50” value in test [6] was determined as 1.2 µg/mL.

For `COc1cc2c(Oc3ccc(N(/N=C/c4c(O)ccc5ccccc45)C(N)=O)cc3F)ccnc2cc1OCCCN1CCC(C)CC1` [Example 21, (E)-N^1-(3-fluoro-4-(6-methoxy-7-(3-(4-methylpiperidin-1-yl)propoxy)quinoline-4-yloxy)phenyl)-N^4-(2-hydroxy-1-naphthaldehyde)semicarbazone], the IC50 in test [1] was 0.16 µg/mL (≈ 0.245 µM); in test [2], 0.065 µg/mL (≈ 0.0997 µM); in test [3], 0.1 µg/mL (≈ 0.153 µM); in test [4], 0.98 µg/mL (≈ 1.5 µM); in test [5] it was 0.087 µg/mL (≈ 0.133 µM); in test [6], 0.89 µg/mL (≈ 1.37 µM).

For `COc1cc2c(Oc3ccc(C=NNC(=O)Nc4ccc(Cl)c(C(F)(F)F)c4)cc3F)ccnc2cc1OCCCN1CCCCC1` [Example 46], the “H460 IC50” value in test [1] amounted to 0.33 µg/mL. In addition, the “HT-29 IC50” value in test [2] turned out to be 0.45 µg/mL. The “MKN-45 IC50” value in test [3] turned out to be 0.23 µg/mL. Besides, the “SMMC-7721 IC50” value in test [4] was found to be 0.69 µg/mL. In addition, the “MDA-MB-231 IC50” value in test [5] came to 0.25 µg/mL. Also, in test [6], the “U87MG IC50” value worked out at 1.2 µg/mL.

Regarding `COc1cc2c(Oc3ccc(NC(=S)N/N=C/c4ccccc4)cc3F)ccnc2cc1OCCCN1CCN(C)CC1` [Example 39, (E)-N^1-(3-fluoro-4-(6-methoxy-7-(3-(4-methyl-1-piperazinyl)propoxy)quinoline-4-yloxy)phenyl)-N^4-(benzaldehyde)thiosemicarbazone], the “H460 IC50” value in test [1] is 1.1 µg/mL. Further, in test [2], the “HT-29 IC50” value turned out to be 0.94 µg/mL. Also, the “MKN-45 IC50” value in test [3] is 0.59 µg/mL. In addition, the “SMMC-7721 IC50” value in test [4] was found to be 1.7 µg/mL. Besides, in test [5], the “MDA-MB-231 IC50” value is 0.97 µg/mL. The “U87MG IC50” value in test [6] came out at 1.6 µg/mL.

Turning to “(E)-N^1-(3,5-dichlorophenyl)-N^4-(3-fluoro-4-(6-methoxy-7-(3-(piperidin-1-yl)propoxy)quinolin-4-yloxy)benzylidene)thiosemicarbazide [Example 61]”, the “H460 IC50” value in test [1] was 0.054 µg/mL. For the same compound, the “HT-29 IC50” value in test [2] worked out at 0.076 µg/mL. In test [3], the “MKN-45 IC50” value is 0.15 µg/mL. Further, the “SMMC-7721 IC50” value in test [4] worked out at 0.22 µg/mL. Also, the “MDA-MB-231 IC50” value in test [5] stood at 0.092 µg/mL. The “U87MG IC50” value in test [6] amounted to 0.21 µg/mL.

Turning to `COc1cc2c(Oc3ccc(N(/N=C/c4ccc(F)cc4)C(N)=S)cc3F)ccnc2cc1OCCCN1CCOCC1` [Example 45, (E)-N^1-(3-fluoro-4-(6-methoxy-7-(3-(morpholin-4-yl)propoxy)quinoline-4-yloxy)phenyl)-N^4-(4-fluorobenzaldehyde)thiosemicarbazone], the IC50 worked out at 0.11 µg/mL (≈ 0.181 µM) in test [1]; 0.19 µg/mL (≈ 0.313 µM) in test [2]; 0.37 µg/mL (≈ 0.609 µM) in test [3]; 1 µg/mL (≈ 1.65 µM) in test [4]; 0.17 µg/mL (≈ 0.28 µM) in test [5]; 0.9 µg/mL (≈ 1.48 µM) in test [6].

With “(E)-N^1-(3-fluoro-4-(6-methoxy-7-(3-(4-methylpiperidin-1-yl)propoxy)quinoline-4-yloxy)phenyl)-N^4-(2-chloro-4-fluorobenzaldehyde)semicarbazone [Example 13]”, the “H460 IC50” value in test [1] worked out at 0.097 µg/mL. Moreover, the “HT-29 IC50” value in test [2] was 0.16 µg/mL. The “MKN-45 IC50” value in test [3] was determined as 0.27 µg/mL. Also, in test [4], the “SMMC-7721 IC50” value stood at 0.29 µg/mL. Besides, in test [5], the “MDA-MB-231 IC50” value was 0.16 µg/mL. The “U87MG IC50” value in test [6] stood at 0.33 µg/mL.

Consider “(E)-N^1-(3-fluoro-4-(6-methoxy-7-(3-(piperidin-1-yl)propoxy)quinolin-4-yloxy)phenyl)-N^4-(3,4-difluorobenzylidene)thiosemicarbazide [Example 31]”, for which the “H460 IC50” value in test [1] amounted to 0.041 µg/mL. Also, in test [2], the “HT-29 IC50” value was 0.013 µg/mL. The “MKN-45 IC50” value in test [3] was found to be 0.11 µg/mL. In addition, the “SMMC-7721 IC50” value in test [4] amounted to 0.39 µg/mL. Also, the “MDA-MB-231 IC50” value in test [5] stood at 0.059 µg/mL. The “U87MG IC50” value in test [6] was 0.22 µg/mL.

Regarding `COc1cc2c(Oc3ccc(NC(=O)N/N=C/c4ccccc4)cc3F)ccnc2cc1OCCCN1CCOCC1` [Example 3, (E)-N^1-(3-fluoro-4-(6-methoxy-7-(3-(morpholin-4-yl)propoxy)quinoline-4-yloxy)phenyl)-N^4-(benzaldehyde)semicarbazone], the “H460 IC50” value in test [1] came out at 0.11 µg/mL. Also, the “HT-29 IC50” value in test [2] worked out at 0.42 µg/mL. The “MKN-45 IC50” value in test [3] is 0.12 µg/mL. Besides, the “SMMC-7721 IC50” value in test [4] amounted to 2.1 µg/mL. Further, in test [5], the “MDA-MB-231 IC50” value came out at 0.13 µg/mL. For the same compound, the “U87MG IC50” value in test [6] stood at 0.33 µg/mL.

As to `COc1cc2c(Oc3ccc(C=NNC(=O)Nc4cccc(Br)c4)cc3F)ccnc2cc1OCCCN1CCOCC1` [Example 54, (E)-N^1-(3-bromophenyl)-N^4-(3-fluoro-4-(6-methoxy-7-(3-(morpholin-4-yl)propoxy)quinoline-4-yloxy)benzaldehyde)semicarbazone], the “H460 IC50” value in test [1] came out at 1.5 µg/mL. Moreover, in test [2], the “HT-29 IC50” value is 1.3 µg/mL. Moreover, the “MKN-45 IC50” value in test [3] worked out at 2.0 µg/mL. For the same compound, the “SMMC-7721 IC50” value in test [4] worked out at 2.7 µg/mL. The “MDA-MB-231 IC50” value in test [5] amounted to 0.96 µg/mL. Moreover, the “U87MG IC50” value in test [6] is 1.8 µg/mL.

In the case of `COc1cc2c(Oc3ccc(NC(=O)N/N=C/c4ccc(F)cc4)cc3F)ccnc2cc1OCCCN1CCC(C)CC1` [Example 10, (E)-N^1-(3-fluoro-4-(6-methoxy-7-(3-(4-methylpiperidin-1-yl)propoxy)quinoline-4-lyoxy)phenyl)-N^4-(4-fluorobenzaldehyde)semicarbazone], the “H460 IC50” value in test [1] stood at 0.0092 µg/mL. Further, the “HT-29 IC50” value in test [2] stood at 0.0015 µg/mL. The “MKN-45 IC50” value in test [3] stood at 0.038 µg/mL. In test [4], the “SMMC-7721 IC50” value was 0.16 µg/mL. The “MDA-MB-231 IC50” value in test [5] stood at 0.011 µg/mL. The “U87MG IC50” value in test [6] worked out at 0.019 µg/mL.

Turning to `COc1cc2c(Oc3ccc(NC(=S)N/N=C/c4ccccc4)cc3F)ccnc2cc1OCCCN1CCCC1` [Example 36, (E)-N^1-(3-fluoro-4-(6-methoxy-7-(3-(pyrrolidin-1-yl)propoxy)quinoline-4-yloxy)phenyl)-N^4-(benzaldehyde)thiosemicarbazone], the “H460 IC50” value in test [1] amounted to 0.034 µg/mL. For the same compound, the “HT-29 IC50” value in test [2] stood at 0.012 µg/mL. Moreover, the “MKN-45 IC50” value in test [3] worked out at 0.11 µg/mL. For the same compound, the “SMMC-7721 IC50” value in test [4] is 0.35 µg/mL. Besides, the “MDA-MB-231 IC50” value in test [5] amounted to 0.048 µg/mL. In addition, the “U87MG IC50” value in test [6] amounted to 0.29 µg/mL.
